Laboratory results: patent US7169591B1, “Preparation of enantio-specific epoxides” (priority 1999, dated 2007)

Columns and labels:
[1] = tested on: Burkholderia sp. strain ENVBF1; test: Alkene degradation assay, whole cells of Burkholderia sp. strain ENVBF1 (T4MO); type: cell-based
Text: (§1) Pseudomonas mendocina KR1 (Yen et al., J. Bacteriol., 173:5315–5327 (1991)), the T4MO mutant of KR1 Pseudomonas mendocina ENVpmx1 (McClay et al., The 97th Annual Meeting of ASM, Abstract K36, page 348 (1997)), Pseudomonas pickettii PKO1 (Byrne et al., Gene, 154:65–70 (1995)), Burkholderia cepacia G4 (Shields et al., Appl. Environ. Microbiol., 55:1624–1629 (1989)), Burkholderia sp. strain ENVBF1 (McClay et al., Appl. Environ. Microbiol., 62:2716–2722 (1996)), and Pseudomonas sp. strain ENVPC5 (McClay et al., 1996, supra) were cultured overnight at 30° C. in shake flasks containing basal salts medium (BSM; 10) supplemented with 0.4% sodium glutamate. Toluene was included in the vapor phase when induction of the toluene oxygenases was desired. Prior to substrate degradation assays the cultures were harvested by centrifugation and resuspended in BSM to an optical density at 550 nm (OD550) of 2, unless otherwise indicated. A standard curve of optical density vs. protein concentration for each strain was used to calculate the amount of protein per ml of the resuspended cultures.
(§2) To determine the range of alkenes that could be degraded by the toluene monooxygenase and the degradation kinetics of the toluene monooxygenases, 5-ml aliquots of the resuspended cultures were dispensed to 25-ml serum vials and crimp sealed with Teflon™ faced septa. Gaseous alkene substrates were added as pure compounds by using a gas-tight syringe, and other alkene substrates were added from stock solutions (20% in dimethylformamide). The amount of individual alkene substrates added were as follows: 1-butene, 2-butene, and 1,3-butadiene, 2.2 μM; epoxy butane, 1,3-butadiene monoxide, and epichlorohydrine, 8 μM; 1- and 2-pentene, 9 μM; hexene, 4 μM; octadiene, 4.5 μM; 2-chloropropene, 11 μM; and, 2,3-dichloropropene, 12 μM unless otherwise indicated. The serum vials were then placed horizontally on a rotary shaker operating at 100 rpm. During incubation the temperature was maintained between 20–22° C. for the Pseudomonads and at 37° C. for E. coli. The serum vials were periodically removed from the shaker and a 10–25 μl portion of the headspace gas was withdrawn through the septa and injected onto a gas chromatograph (GC) equipped with a 30 m Vocol column (Supelco Inc. Bellefonte, Pa.) maintained at 160° C., and a flame ionization detector. This allowed the monitoring of both the alkene compounds as well as the epoxide products. The same protocol was used to detect the formation of 1,2-butanediol and butadiene diepoxide, except that 1 μl of the culture media was injected onto the column rather than the headspace gas.

[2] = tested on: Pseudomonas mendocina KR1; test: Alkene degradation assay, whole cells of Pseudomonas mendocina KR1 (T4MO); type: cell-based
Text: as §1, §2

[3] = tested on: Burkholderia sp. strain ENVBF1; test: Enantiomeric ratio of monoepoxides (chiral GC), strain ENVBF1; type: cell-based
Procedure: (§3) To determine the ratio of R and S isomers of the epoxides formed from the oxidation of the alkenes, samples were analyzed for the presence of the epoxides and alkenes by gas chromatography as described above. When the epoxide concentration neared its maximum, or when the 80–90% of the substrate was degraded, the enantiomeric ratio of epoxides produced was determined by injecting a sample of the headspace gas onto a GC equipped with a chiral separation column (RT-BDEXSE; Restek, Inc., Bellefonte, Pa.) and a flame ionization detector. The column was maintained at 50° C.

[4] = tested on: Pseudomonas pickettii PKO1 (T3MO); test: Enantiomeric ratio of monoepoxides (chiral GC), strain PKO1; type: cell-based; settings: KO1 (PKO1)
Procedure: as §3

[5] = tested on: Pseudomonas sp. strain ENVPC5; test: Enantiomeric ratio of monoepoxides (chiral GC), strain ENVPC5; type: cell-based; settings: PC5
Procedure: as §3

[6] = tested on: Pseudomonas sp. strain ENVPC5; test: Alkene degradation assay, whole cells of Pseudomonas sp. strain ENVPC5 (T4MO); type: cell-based; settings: for added substrate degraded: in 20 hours
Text: as §1, §2

[7] = tested on: Burkholderia cepacia G4 (T2MO); test: Enantiomeric ratio of monoepoxides (chiral GC), strain G4; type: cell-based
Procedure: as §3

[8] = tested on: Pseudomonas mendocina KR1 (T4MO); test: Enantiomeric ratio of monoepoxides (chiral GC), strain KR1; type: cell-based
Procedure: as §3

[9] = tested on: Burkholderia cepacia G4; test: Alkene degradation assay, whole cells of Burkholderia cepacia G4 (T2MO); type: cell-based; settings: for alkene degraded that was detected as the epoxide product: toluene induced G4, 4.4 μmoles 1,3-butadiene or 2.2 μmoles 2-butene
Text: as §1, §2

[10] = target: T1, alkane hydroxylase (Ectopseudomonas oleovorans, UniProt P12691); settings: cited from earlier work
T1 sequence (P12691 1-401): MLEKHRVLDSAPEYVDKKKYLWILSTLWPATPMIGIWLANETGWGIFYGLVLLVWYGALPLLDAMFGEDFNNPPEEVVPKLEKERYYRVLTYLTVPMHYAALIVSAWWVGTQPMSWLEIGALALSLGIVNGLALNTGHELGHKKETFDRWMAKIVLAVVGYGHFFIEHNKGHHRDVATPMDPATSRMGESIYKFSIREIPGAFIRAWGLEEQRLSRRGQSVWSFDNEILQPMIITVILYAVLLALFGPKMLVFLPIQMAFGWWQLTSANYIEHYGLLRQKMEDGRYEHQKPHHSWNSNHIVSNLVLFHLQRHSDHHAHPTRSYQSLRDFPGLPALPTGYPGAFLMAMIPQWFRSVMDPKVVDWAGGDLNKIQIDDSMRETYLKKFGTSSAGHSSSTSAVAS

[11] = tested on: wild type organisms; test: Alkene oxidation and epoxide detection (GC, PNBP), wild type organisms; type: cell-based; settings: for epoxide detection during oxidation: wild type organisms
Procedure: as §2
The only epoxides relevant to this study that were commercially available were 1,3-butadiene mono-, and diepoxide. These were used in GC analyses to determine retention times and to quantitate the conversion of 1,3-butadiene to the corresponding epoxides. To verify that the observed peaks were epoxides, a modification of the method of van Hylckama et al. (van Hylckama et al., Appl. Environ. Microbiol., 62:3304–3312 (1996)) was used, whereby epoxides were conjugated with PNBP to form intensely colored adducts of the epoxides. Serum vials were prepared as before, except that prior to sealing the vials, Durham tubes were placed inside the vials, with the opening of the Durham tube extending out of the liquid. The substrate was then added and the vials were incubated with moderate shaking at a 45° angle to prevent the culture liquid from entering the Durham tube. The transformation of the alkenes was monitored by GC analysis. […] The vials were then allowed to incubate for 8 hours before they were opened and the epoxide containing PNBP withdrawn. The total volume of PNBP solution was combined with an equal volume of acetone-triethylamine (50:50) and mixed rapidly. Epoxide/PNBP adducts were detected by spectra analysis (400–700 nm).

[12] = tested on: E. coli (pRS202) expressing T4MO; test: Alkene degradation assay, E. coli (pRS202) expressing T4MO; type: cell-based, Escherichia coli DH10B
Procedure: Escherichia coli DH10B containing the plasmid pRS202 (Pikus et al., Biochemistry, 35:9106–9119 (1996); Pikus et al., Biochemistry, 36:9283–9289 (1997)) was prepared in a similar manner except it was grown at 37° C. in LB media, and was resuspended to an OD550 of 4 in LB media with 0.3–1 mM IPTG to induce expression of T4MO.
as §2

[13] = tested on: Pseudomonas mendocina ENVpmx1; test: Alkene degradation assay, T4MO deficient strain Pseudomonas mendocina ENVpmx1; type: cell-based
Text: as §1, §2

[14] = ENVBF1, following 30 minutes incubation
[15] = following 30 minutes incubation
[16] = rate determined after 60 minutes of incubation

C=CC=C [1,3-butadiene]
Specific activity of toluene monooxygenase, substrate degraded [1, 14]: 0.13 μM substrate degraded/minute/mg protein
added substrate degraded ([2]; in 20 hours): 50%
substrate degraded ([2]; in 20 hours): 1.1 µmol
monoepoxide formed, R enantiomer [3]: 22%
monoepoxide formed, S enantiomer [3]: 78%
monoepoxide formed, R enantiomer [4]: 19.6%
monoepoxide formed, S enantiomer [4]: 80.4%
monoepoxide formed, R enantiomer [5]: 32.7%
monoepoxide formed, S enantiomer [5]: 67.3%
Specific activity of toluene monooxygenase, substrate degraded [6, 15]: 0.09 μM substrate degraded/minute/mg protein
added substrate degraded [6]: 50%
monoepoxide formed, R enantiomer [7]: 8.1%
monoepoxide formed, S enantiomer [7]: 91.9%
monoepoxide formed, R enantiomer [8]: 22.4%
monoepoxide formed, S enantiomer [8]: 77.6%
time until oxidized to a concentration below the limits of detection ([9]; G4): ≤ 6 h
alkene degraded that was detected as the epoxide product [9]: > 95%

C=CCCCCC=C [1,7-octadiene]
enantiomeric purity of the (R) epoxide formed [10]: 98%

C=CCCC [1-pentene]
Specific activity of toluene monooxygenase, substrate degraded [1, 14]: 0.05 μM substrate degraded/minute/mg protein
Specific activity of toluene monooxygenase, substrate degraded [2, 15]: 0.21 μM substrate degraded/minute/mg protein
monoepoxide formed, R enantiomer [3]: 66.3%
monoepoxide formed, S enantiomer [3]: 33.7%
degradation ([11]; all the wild type strains): efficiently degraded
monoepoxide formed, R enantiomer [4]: 64.6%
monoepoxide formed, S enantiomer [4]: 35.4%
monoepoxide formed, R enantiomer [5]: 72.5%
monoepoxide formed, S enantiomer [5]: 27.5%
Specific activity of toluene monooxygenase, substrate degraded [6, 15]: 0.15 μM substrate degraded/minute/mg protein
monoepoxide formed, R enantiomer [7]: 100%
monoepoxide formed, S enantiomer [7]: 0%
monoepoxide formed, R enantiomer [8]: 54.2%
monoepoxide formed, S enantiomer [8]: 45.8%
Specific activity of toluene monooxygenase, substrate degraded ([9]; G4, following 30 minutes incubation): 0.08 μM substrate degraded/minute/mg protein
degradation by the clone of T4MO [12]: degraded

C=C(Cl)CCl [2,3-chloropropene, 2,3-dichloropropene]
amount oxidized, less than the amount of 2-chloropropene degraded by the same strain ([1]; ENVBF1): 75.6%
Specific activity of toluene monooxygenase, substrate degraded ([1]; ENVBF1, rate determined after 60 minutes of incubation): 0.08 μM substrate degraded/minute/mg protein
amount oxidized, less than the amount of 2-chloropropene degraded by the same strain [2]: 95.2%
Specific activity of toluene monooxygenase, substrate degraded [2, 16]: 0.01 μM substrate degraded/minute/mg protein
epoxide detection during oxidation [11]: no epoxides were detected
amount oxidized, less than the amount of 2-chloropropene degraded by the same strain [6]: 66.0%
Specific activity of toluene monooxygenase, substrate degraded [6, 16]: 0.12 μM substrate degraded/minute/mg protein
amount degraded compared with the T4MO-expressing organisms ([9]; G4): twice as much
Specific activity of toluene monooxygenase, substrate degraded ([9]; G4, rate determined after 60 minutes of incubation): 0.23 μM substrate degraded/minute/mg protein

CC=CC [2-butene]
Specific activity of toluene monooxygenase, substrate degraded [1, 14]: 0.12 μM substrate degraded/minute/mg protein
time to degrade all the substrate [2]: 3.5 h
added substrate degraded ([2]; in 20 hours): Greater than 95%
Specific activity of toluene monooxygenase, substrate degraded [6, 15]: 0.17 μM substrate degraded/minute/mg protein
added substrate degraded [6]: Greater than 95%
alkene degraded that was detected as the epoxide product [9]: 43%

C=C(C)Cl [2-chloropropene]
substrate degraded ([1]; ENVBF1, first 3 hours of incubation): 2.3 µmol
Specific activity of toluene monooxygenase, substrate degraded [1, 14]: 0.16 μM substrate degraded/minute/mg protein
substrate degraded ([1]; ENVBF1, following 17 hours): 6.3 µmol
substrate degraded ([2]; first 3 hours of incubation): 2.1 µmol
Specific activity of toluene monooxygenase, substrate degraded [2, 15]: 0.07 μM substrate degraded/minute/mg protein
additional substrate degraded ([2]; following 17 hours): 0.84 µmol
epoxide detection during oxidation [11]: no epoxides were detected
substrate degraded ([6]; first 3 hours of incubation): 4 µmol
Specific activity of toluene monooxygenase, substrate degraded [6, 15]: 0.18 μM substrate degraded/minute/mg protein
additional substrate degraded ([6]; following 17 hours): 1.0 µmol

C=CCCCCC1CO1 (stereo not drawn) [7,8-epoxy-1-octene]
enantiomeric purity of the (R) epoxide formed [10]: 83%

C=CC1CO1 (stereo not drawn) [BME, 1,3-butadiene monoepoxide]
epoxide oxidized ([1]; induced ENVBF1, 24 hours): 13.4 µmol
epoxide degraded ([1]; uninduced ENVBF1, 24 hours): less than 1.3 μmoles
epoxide degraded ([9]; induced G4 in the presence of butadiene, approximately 5 hr): 0.7 µmol
epoxide degraded ([9]; induced G4 in the presence of toluene, approximately 5 hr): 0.5 µmol
epoxide degraded ([9]; toluene-induced G4, pure BME, first hour): 8 µmol
epoxide oxidized ([9]; uninduced G4, first hour): less than 1 μmole

hexene
degradation compared with the wild type strains [13]: at a greater rate than the wild type strains
epoxide detection during oxidation [13]: no epoxides were detected
epoxide detection during oxidation [11]: no epoxides were detected
degradation by the clone of T4MO [12]: degraded

octadiene
degradation compared with the wild type strains [13]: at a greater rate than the wild type strains
epoxide detection during oxidation [13]: no epoxides were detected
epoxide detection during oxidation [11]: no epoxides were detected
degradation by the clone of T4MO [12]: did not oxidize

pentene
epoxide detection during oxidation [13]: no epoxides were detected
